# Experimental data taken from patent US20230293698A1, “METAL-ORGANIC FRAMEWORKS DELIVER SMALL MOLECULES AND BIOMACROMOLECULES FOR CANCER IMMUNOTHERAPY” (The University of Chicago, priority 2020, published 2023).
# What was measured:
# [1] = system: MC38 tumor; settings: intratumoral injection, Cy5 label
# From the text: The images were processed and analyzed by software sold under the tradename LIVING IMAGE® 4.7.2 (PerkinElmer, Waltham, Massachusetts, United States of America).
# [2] = Toxicity after intravenous injection; assay type: in vivo; settings: C57BL/6 mice, biweekly, total of 4 doses
Compound,fluorescence signal retention in tumor [1],toxicity (bodyweight gains) [2]
"Nc1nc2c(ncn2[C@@H]2O[C@@H]3COP(=O)(O)O[C@H]4[C@@H](O)[C@H](n5cnc6c(N)ncnc65)O[C@@H]4COP(=O)(O)O[C@@H]2[C@@H]3O)c(=O)[nH]1 [cGAMP, cyclic guanosine monophosphate-adenosine monophosphate]",diffused and disappeared quickly,–
Ir(DBB)[dF(CF3)ppy]2^+ [DBB^F-Ir],–,did not cause toxicity
